Measured values from article PMC6013495, “Development of a Novel Backbone Cyclic Peptide Inhibitor of the Innate Immune TLR/IL1R Signaling Protein MyD88” (Scientific Reports, 2018).
One block for each molecule: values may come before it. Numbered stars: 1 amine (or outer) side, 2 acyl side, 3 side chain; on linkers, the order of the positions; unused ones are H or OH. Bridge positions count the residues as written; N and C are the ends. Square brackets hold non-standard residues; d marks the D form. Ends that are not written are not given here. Peptide text beside a SMILES is read from it. N(6-aminohexyl)Gly = O=C(CN(CCCCCCN[*:3])[*:1])[*:2]; CO = O=C([*:1])[*:2]; Nlys = NCCCCNCC(=O)O

Columns and labels:
THP-1 macrophages = type: cell-based, human
Text: MyD88 function depends on dimerization through the TIR domain[37]. The RDVLPGT peptide corresponds to the region between the βB strand and the αB helix[18] […] We screened a library of backbone cyclized peptides to identify a metabolically stable derivative of the BB loop peptide that retains the binding and functional properties of the parent peptide. The library was designed using two non-natural building blocks as previously reported. The method, called cycloscan, is based on the concept of screening focused backbone cyclic libraries with spatial diversity that maintain the original side chains of the active region in the protein (RDVLPGT), Backbone cyclization combines N-alkylation with cyclization. In the case of the MyD88 BB-loop decoy peptide RDVLPGT, the tertiary amide bond preceding proline served as one of the anchor sites and was therefore replaced by an N-Alkylated glycine building unit (AGBU) to allow backbone cyclization to the second AGBU at the N-terminus (Fig. 1). Tryptophan was added to the N-terminal AGBU for quantification purposes (Fig. 1). Following the above procedure 16 backbone cyclic peptides were prepared with various ring size and position of the urea bridge in the ring (Table S1). To screen the library, human THP-1 macrophages were pre-treated with the cyclic peptides and then stimulated with Pam3CSK4, a synthetic TLR2/1 lipopeptide agonist.

[1] = Peptide stability in brush border membrane vesicles (BBMVs); type: in vitro ADME; settings: rat intestinal BBMVs in MES buffer 50 mM pH 7.4, 37 °C, HPLC-MS, triplicate
Procedure: The linear peptide and c(MyD 4-4) (10 µg/ml) were mixed with fresh plasma from male Wistar rats (Harlan, Israel) and incubated at 37 °C for 240 min. Triplicate samples were taken at time 0 and after 5, 30, 60, 120, 180 and 240 min. Rat brush border membrane vesicles (BBMV) were prepared by Ca^2+ precipitation from the combined duodenum, jejunum, and upper ileum of male rats as described[41],[42]. Briefly, intestines were washed with ice cold saline and separated from mucus. The intestinal mucosa was separated from the luminal surface and placed immediately into buffer containing […] KCl and 10 mM Tris–HCl (pH 7.5, 4 °C). The samples were then homogenated (Polytron PT 1200, Kinematica AG, Switzerland) and 10 mM CaCl2 was added. The homogenate was placed on a shaker for 30 min at 4 °C and then centrifuged 10,000 g for 10 min. The supernatant was separated and centrifuged at 48,000 g for 30 min and an additional two purification steps were undertaken by suspending the pellet in 300 mM mannitol and 10 mM Hepes/Tris (pH 7.5) and centrifuging at 24,000 g/h. […]
To determine the concentration of the compounds, experimental samples were diluted 1:1 with ice-cold acetonitrile and centrifuged (11000 RPM, 10 min). […] The amount of the compounds was determined using high performance liquid chromatography mass spectrometry (HPLC-MS) Waters 2695 Separation Module, equipped with Micromass ZQ detector. […]

[2] = Peptide stability in rat plasma; type: in vitro ADME; settings: fresh plasma of male Wistar rats, 37 °C, HPLC-MS, triplicate; for stability in plasma: 10 µg/ml, up to 240 min
Procedure: The linear peptide and c(MyD 4-4) (10 µg/ml) were mixed with fresh plasma from male Wistar rats (Harlan, Israel) and incubated at 37 °C for 240 min. Triplicate samples were taken at time 0 and after 5, 30, 60, 120, 180 and 240 min. Rat brush border membrane vesicles (BBMV) were prepared by Ca^2+ precipitation from the combined duodenum, jejunum, and upper ileum of male rats as described[41],[42]. Briefly, intestines were washed with ice cold saline and separated from mucus. The intestinal mucosa was separated from the luminal surface and placed immediately into buffer containing […] KCl and 10 mM Tris–HCl (pH 7.5, 4 °C). The samples were then homogenated (Polytron PT 1200, Kinematica AG, Switzerland) and 10 mM CaCl2 was added. The homogenate was placed on a shaker for 30 min at 4 °C and then centrifuged 10,000 g for 10 min. The supernatant was separated and centrifuged at 48,000 g for 30 min and an additional two purification steps were undertaken by suspending the pellet in 300 mM mannitol and 10 mM Hepes/Tris (pH 7.5) and centrifuging at 24,000 g/h. The quality of the BBMV purification was tested using the brush border membrane enzyme markers gamma-glutamyl transpeptidase (GGT), leucine amino peptidase (LAP) and alkaline phosphatase (Sigma-Aldrich, St Louis, MO). Peptides were mixed with purified BBMVs in MES buffer (2-(N-morpholino)ethanesulfonic acid, 50 mM pH 7.4) and incubated at 37 °C for 120 min. Triplicate samples were taken at time 0 and after 15, 30, 45, 60, 90, and 120 min.
To determine the concentration of the compounds, experimental samples were diluted 1:1 with ice-cold acetonitrile and centrifuged (11000 RPM, 10 min). The supernatant was separated and evaporated (Vacuum Evaporation System, Labconco, Kansas City, MO). Samples were reconstituted with acetonitrile: water 70:30 and then centrifuged (11000 RPM, 10 min). The amount of the compounds was determined using high performance liquid chromatography mass spectrometry (HPLC-MS) Waters 2695 Separation Module, equipped with Micromass ZQ detector. The resulting solution (100 μl) was injected into the HPLC system. […]

[3] = test system: THP-1 cells, TLR2 ligand Pam3CSK4; test: hTNFα production by THP-1 macrophages stimulated with Pam3CSK4 (TLR2); type: cell-based, human; settings: THP-1, inhibitors 3 hr before Pam3CSK4, 24 h, ELISA
Procedure: MyD88 function depends on dimerization through the TIR domain[37]. The RDVLPGT peptide corresponds to the region between the βB strand and the αB helix[18] […] We screened a library of backbone cyclized peptides to identify a metabolically stable derivative of the BB loop peptide that retains the binding and functional properties of the parent peptide. The library was designed using two non-natural building blocks as previously reported. […] Tryptophan was added to the N-terminal AGBU for quantification purposes (Fig. 1). […]
Figure 3 c(MyD 4-4) blocks TLR-mediated macrophage activation. (A) THP-1 cells were treated with inhibitors for 3 hr prior to activation with the TLR2 ligand Pam3CSK4 200 pg/ml for 24 h. hTNFα levels were determined by ELISA. […] (B,C) Luminescence levels from the NFκB-luc murine RAW264.7 cells. […] NFκB-luc RAW264.7 cells were treated with inhibitors for 24 hr and then cells were stimulated with Pam3CSK4 (10 ng/ml) (C) or LPS (50 ng/ml) (D) for 4 hr and luminescence levels were determined. […] Human (h) TNFα levels were determined by ELISA at 24 hr. (F,G) NFκB-luc RAW264.7 cells were treated with the indicated compounds for 24 hr and then stimulated with Pam3CSK4 (F) or LPS (G) for 4 hr after which luminescence was determined. […]
(§1) Cytokines were determined using human/mouse OptEIA sets (BD Biosciences, CA, USA) according to the manufacturer’s instructions.

[4] = test system: THP-1 cells, TLR4 ligand LPS; test: hTNFα production by THP-1 macrophages stimulated with LPS (TLR4); type: cell-based, human; settings: THP-1, compound 3 hr before LPS, 24 hr, ELISA
Procedure: Figure 3 c(MyD 4-4) blocks TLR-mediated macrophage activation. (A) THP-1 cells were treated with inhibitors for 3 hr prior to activation with the TLR2 ligand Pam3CSK4 200 pg/ml for 24 h. hTNFα levels were determined by ELISA. One representative experiment of three independent experiments is shown. Asterisks represent the significance between treated cells and untreated Pam3CSK4-stimulated control. Asterisks above a cross bar represent the comparison between treatment with c(MyD 4-4) and treatment with MyDI. (B,C) Luminescence levels from the NFκB-luc murine RAW264.7 cells. The different conditions were set according to preliminary assays of each cell line. NFκB-luc RAW264.7 cells were treated with inhibitors for 24 hr and then cells were stimulated with Pam3CSK4 (10 ng/ml) (C) or LPS (50 ng/ml) (D) for 4 hr and luminescence levels were determined. One representative experiment of three independent experiments is shown. […] Human (h) TNFα levels were determined by ELISA at 24 hr. (F,G) NFκB-luc RAW264.7 cells were treated with the indicated compounds for 24 hr and then stimulated with Pam3CSK4 (F) or LPS (G) for 4 hr after which luminescence was determined. […]
as §1

RAW264.7 NFκB-luc cells = test: Viability of NFκB-luc RAW264.7 cells; type: cell-based, mouse; settings: 24 hr treatment
[5] = molecular target: T1, recombinant fusion protein SUMO-MyD88-TIR (human MyD88 TIR domain, aa 150-296, fused to SUMO) (human, UniProt Q99836 150-296); test: ELISA; competitive binding: SUMO-MyD88-TIR (8 µg/ml) attached to polystyrene plates at 4 °C overnight, blocked with 1% BSA in PBS; 125 µM Biotin-MyDI together with 10, 1, 0.1 or 0 µM competitor for 30 min; Streptavidin-HRP, absorbance at 450 nm; settings: both partners purified
T1 construct: MyD88, human, TIR domain residues 150-296; Cloned with BamH/XhoI into the pETM-11 SUMO3GFP fusion vector; also called recombinant MyD88 TIR domain; Recombinant MyD88 TIR protein; source: E. coli BL21 C43 (DE3), purified (HIS-select Nickel Magnetic agarose beads, eluted with 300 mM imidazole)
T1 sequence (Q99836 150-296): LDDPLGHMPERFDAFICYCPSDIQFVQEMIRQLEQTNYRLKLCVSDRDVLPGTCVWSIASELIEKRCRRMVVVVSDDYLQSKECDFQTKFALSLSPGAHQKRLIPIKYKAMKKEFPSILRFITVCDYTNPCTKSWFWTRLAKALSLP

[6] = molecular target: T1, recombinant fusion protein …; test: ELISA; SUMO fusion protein attached to ELISA plate wells; biotinylated peptide added at several concentrations; settings: both partners purified

Molecule: CC(C)C[C@@H]1NC(=O)[C@H](C(C)C)NC(=O)[C@H](CC(=O)O)NC(=O)[C@H](CCCNC(=N)N)NC(=O)CN(C(=O)[C@@H](N)Cc2c[nH]c3ccccc23)CCCCCCNC(=O)NCCCCCCN(CC(=O)NCC(=O)N[C@H](C(N)=O)[C@@H](C)O)C1=O [c(MyD6x6)] (H-W[N(6-aminohexyl)Gly]RDVL[N(6-aminohexyl)Gly]GT-NH2; linker 2-7 via CO)
cytotoxicity (THP-1 macrophages): without causing cytotoxicity

stability with BBMVs ([1]; up to 120 min): rapidly degraded
stability in plasma [2]: rapidly degraded
Molecule: RDVLPGT-NH2 [MyDI]

Molecule: CC(C)C[C@@H]1NC(=O)[C@H](C(C)C)NC(=O)[C@H](CC(=O)O)NC(=O)[C@H](CCCNC(=N)N)NC(=O)CN(C(=O)[C@@H](N)Cc2c[nH]c3ccccc23)CCCCNC(=O)NCCCCN(CC(=O)NCC(=O)N[C@H](C(N)=O)[C@@H](C)O)C1=O [c(MyD 4-4)] (H-W[Nlys]RDVL[Nlys]GT-NH2; linker 2-7 via CO)
remaining at 2 h ([1]; male, intestinal brush border membrane vesicles (BBMVs), 2 h, mean, read-out: peptide recovered at end of incubation with BBMVs): ~80%
stability in plasma [2]: highly stable
remaining at 4 h, 10 µg/ml ([2]; rat, 240 minutes, mean, read-out: starting material detected after incubation in plasma): > 90%
cytotoxicity (THP-1 macrophages): without causing cytotoxicity

Molecule: NC(=O)[C@H]1CCS[C@@H]2C[C@]3(CCCN3C(=O)Cc3ccc(NC(=O)COc4ccc(Cl)cc4Cl)cc3)C(=O)N12 [ST2825]
inhibition of hTNFα production [3]: did not block
inhibition of hTNFα production [4]: did not block
cytotoxicity (RAW264.7 NFκB-luc cells): highly cytotoxic

binding result [5]: binds
B1: MyD88 inhibitor peptide (MyDI, RDVLPGT), unlabeled linear BB loop peptide (peptide)
peptide: RDVLPGT-NH2
notes: MyD88 BB loop heptamer; also called non-biotinylated linear peptide; MyD88 BB-loop decoy peptide; source: synthetic peptide (Fmoc chemistry on Rink amide MBHA resin, HPLC purified)

binding result [6]: binds
B2: Biotinylated linear BB loop peptide RDVLPGT (Biotin-MyDI) (peptide)
peptide: RDVLPGT
modifications: also: biotinylated, position not given here
notes: MyD88 BB loop heptamer; also called Biotinylated RDVLPGT; source: bought: Bio Basic Inc
